Assay results from EP0745595A1, “3-(3-Aryloxyphenyl)-1-(substituted methyl)-s-triazine-2,4,6-oxo or thiotrione herbicidal agents” (American Cyanamid Company, priority 1995, dated 1996).

Legend:
Format in all cases: in vivo
[1] = system: ABUTILON THEOPHRASTI, MEDIC.; experiment: Postemergence herbicidal evaluation, ABUTH (Velvetleaf); settings: rated four to five weeks after treatment, averaged
Protocol: (§1) In the tests, seedling plants are grown in jiffy flats for about two weeks. The test compounds are dispersed in 50/50 acetone/water mixtures containing 0.5% TWEEN®20, a polyoxyethylene sorbitan monolaurate surfactant of Atlas Chemical Industries, […] to the plants through a spray nozzle operating at 40 psi for a predetermined time. After spraying, the plants are placed on greenhouse benches and are cared for in the usual manner, commensurate with conventional greenhouse practices. From four to five weeks after treatment, the seedling plants are examined and rated according to the rating system set forth below. Where more than one test is involved for a given compound, the data are averaged.
(§2) Plant species employed in these evaluations are reported by header abbreviation, common name and scientific name.
(§3) Results of herbicide evaluation are expressed on a rating scale (0-9). The scale is based upon a visual observation of plant stand, vigor, malformation, size, chlorosis and overall plant appearance as compared with a control.

IPOMOEA SPP. = experiment: Postemergence herbicidal evaluation, IPOSS (Morningglory spp.); settings: rated four to five weeks after treatment, averaged
Protocol: as §1, §2, §3

SAGITTARIA PYGMAEA, L. = experiment: Preemergence weed control under flooded paddy conditions, SAGPY (Arrowhead (Pygmaea)); settings: preemergence, 3-4 weeks after treatment
Protocol: as §3
Preemergence herbicidal activity under flooded paddy conditions is determined as follows: plant seeds or propagating organs are planted in the top 0.5 cm of silt loam soil in 32 oz. plastic containers with a diameter of 10.5 cm and no drainage holes. Water is added to these containers and maintained at 1.5 to 3 cm above the soil surface for the duration of the experiment. […] The treated containers are placed on greenhouse benches and cared for according to normal greenhouse procedures.- Three to four weeks after treatment the test is terminated and each container is examined and herbicidal effect rated according to the rating system provided in Example 40. The compounds evaluated are reported by compound number given in Example 40.
(§4) Plant species employed in this example are reported by header abbreviation, common name and scientific name.

[2] = system: ORYZA SATIVA, L. TEBONNET; experiment: Rice tolerance to post-transplant applications under flooded paddy conditions, ORYSAT (Rice, Tebonnet); settings: post-transplant rice, 3-4 weeks after treatment
Protocol: as §3
The tolerance of transplanted rice to post-transplanted herbicide applications is determined as follows: two ten-day-old rice seedlings (CV. Tebonnet) are transplanted into a silt loam soil in 32 oz. plastic containers with a diameter of 10.5 cm and no drainage holes. After transplanting the containers are flooded and the water level is maintained at 1.5 to 3 cm above the soil surface. […] The treated containers are placed on greenhouse benches, watered such that the water level is maintained as stated above, and cared for according to normal greenhouse procedures. Three to four weeks after treatment the test is terminated and each container is examined and herbicidal effect rated according to the rating system provided in Example 40. The compounds evaluated are reported by compound number given in Example 40.
as §4

Compound: COC(=O)Cn1c(=O)n(C)c(=O)n(-c2cc(Oc3ccc(Cl)c(C)c3Cl)ccc2[N+](=O)[O-])c1=O [Compound 20, Methyl 3-{5-[(2,4-dichloro-m-tolyl)oxy]-2-nitrophenyl}tetrahydro-5-methyl-2,4,6-trioxo-s-triazine-1(2H)-acetate]
- ABUTH, herbicide rating (0-9) ([1]; Rate 0.125 kg/ha): 9.0
- ABUTH, herbicide rating (0-9) ([1]; Rate 0.250 kg/ha): 9.0
- ABUTH, herbicide rating (0-9) ([1]; Rate 0.500 kg/ha): 9.0
- IPOSS, herbicide rating (0-9) (IPOMOEA SPP.; Rate 0.125 kg/ha): 9.0
- IPOSS, herbicide rating (0-9) (IPOMOEA SPP.; Rate 0.250 kg/ha): 9.0
- IPOSS, herbicide rating (0-9) (IPOMOEA SPP.; Rate 0.500 kg/ha): 9.0
- Herbicidal effect rating, SAGPY (SAGITTARIA PYGMAEA, L.; 0.063 kg/ha): 0.0
- Herbicidal effect rating, SAGPY (SAGITTARIA PYGMAEA, L.; 0.125 kg/ha): 0.0
- Herbicidal effect rating, SAGPY (SAGITTARIA PYGMAEA, L.; 0.250 kg/ha): 0.0
- Herbicidal effect rating, SAGPY (SAGITTARIA PYGMAEA, L.; 0.500 kg/ha): 0.0
- Herbicidal effect rating, ORYSAT ([2]; 0.063 kg/ha): 2.0
- Herbicidal effect rating, ORYSAT ([2]; 0.125 kg/ha): 3.0
- Herbicidal effect rating, ORYSAT ([2]; 0.250 kg/ha): 3.0
- Herbicidal effect rating, ORYSAT ([2]; 0.500 kg/ha): 4.0

Compound: COC(=O)Cn1c(=O)n(C)c(=O)n(-c2cc(Oc3ccc(Cl)cc3F)ccc2[N+](=O)[O-])c1=O [Compound 23, Methyl 3-[5-(4-chloro-2-fluorophenoxy)-2-nitrophenyl]tetrahydro-5-methyl-2,4,6-trioxo-s-triazine-1(2H)-acetate]
- Herbicidal effect rating, SAGPY (SAGITTARIA PYGMAEA, L.; 0.063 kg/ha): 0.0
- Herbicidal effect rating, SAGPY (SAGITTARIA PYGMAEA, L.; 0.125 kg/ha): 0.0
- Herbicidal effect rating, SAGPY (SAGITTARIA PYGMAEA, L.; 0.250 kg/ha): 0.0
- Herbicidal effect rating, SAGPY (SAGITTARIA PYGMAEA, L.; 0.500 kg/ha): 0.0
- Herbicidal effect rating, ORYSAT ([2]; 0.063 kg/ha): 2.0
- Herbicidal effect rating, ORYSAT ([2]; 0.125 kg/ha): 2.0
- Herbicidal effect rating, ORYSAT ([2]; 0.250 kg/ha): 3.0
- Herbicidal effect rating, ORYSAT ([2]; 0.500 kg/ha): 3.0

Compound: COC(=O)Cn1c(=O)n(C)c(=O)n(-c2cc(Oc3ccc(Cl)c(Cl)c3Cl)ccc2[N+](=O)[O-])c1=O [Compound 26, Methyl 3-[2-nitro-5-(2,3,4-trichlorophen-oxy)phenyl]tetrahydro-5-methyl-2,4,6-tri-oxo-s-triazine-1(2H)-acetate]
- Herbicidal effect rating, SAGPY (SAGITTARIA PYGMAEA, L.; 0.063 kg/ha): 0.0
- Herbicidal effect rating, SAGPY (SAGITTARIA PYGMAEA, L.; 0.125 kg/ha): 0.0
- Herbicidal effect rating, SAGPY (SAGITTARIA PYGMAEA, L.; 0.250 kg/ha): 0.0
- Herbicidal effect rating, SAGPY (SAGITTARIA PYGMAEA, L.; 0.500 kg/ha): 0.0
- Herbicidal effect rating, ORYSAT ([2]; 0.063 kg/ha): 2.0
- Herbicidal effect rating, ORYSAT ([2]; 0.125 kg/ha): 2.0
- Herbicidal effect rating, ORYSAT ([2]; 0.250 kg/ha): 3.0
- Herbicidal effect rating, ORYSAT ([2]; 0.500 kg/ha): 3.0
